The subject of data set [1] is Huh7 cells. Nature of the data set: Huh7 cell proliferation assay (CCK8). To be noted: Homo sapiens, Huh-7, 72 h; 3 days; CCK8; mean ± SD of three independent experiments; read-out: Cell proliferation assay IC50, Huh7. In kind it is cell-based, human. As for the experimental part: CCK8 assay kit was used to determine antiproliferative activity of synthesized compounds against Huh7 cell line. First, Huh7 cells were seeded into 96-well plates at a density of 3000 cells/well and incubated overnight. Cells were then co-incubated with compounds at 8 concentrations for 72 h. Then, the cell proliferation was determined by the CCK8 kit according to the standard protocol. Experiments were performed in triplicate.

Data set [2] has as its system AML12 cells. Nature of the data set: AML12 normal liver cell growth inhibition (CCK8). It is filed as cell-based. Conditions: for Inhibitory rate, AML12 (inhibitory percentage of AML12 cell growth): 10 μM, 3 days.
Data set [3] deals with TEADs. Nature of the data set: TEAD-specific 8×GTIIC-luciferase reporter assay. In kind it is cell-based. To be noted: for inhibition at 10 µM: 8×GTIIC-luciferase, read-out: Luciferase reporter assay inhibitory rate. The protocol: A series of compounds featuring a chloromethyl ketone moiety were synthesized (Schemes 1-4). The inhibitory rate of this series of compounds was tested using 8×GTIIC-luciferase reporter assay at 10 μM.
Next, the inhibition of TEAD transcription activity of compounds was tested varying the dosage using the 8×GTIIC-luciferase reporter assay. […] The aim was to determine whether its inhibition of TEAD transcription can lead to downregulation of the YAP-TEAD target genes. CTGF is one of the best characterized (bona fide) target gene of YAP and TAZ.
To further investigate the mechanism of the inhibitory effect of compounds in Huh7 cells, TEADs specific luciferase reporter assays were performed with compounds 22 and 12 at several concentrations. […] TEAD downstream gene expression patterns were evaluated in liver cancer cells Huh7, which has been evidenced with relative high expression of YAP and TEAD2.
HEK 293T cells were plated at 2×10^4 cells/well in a 96 well microplate and were transfected with 50 ng of 8×GTIIC-luciferase plasmid (Addgene #34615) and 0.5 ng of pRL-CMV (Promega #E226A) by using lipofectamine 3000 (Life Technologies #L3000). The 8×GTIIc-luciferase reporter is a Yap/Taz-activity reporter containing eight TEAD consensus binding sequences. After 6 h, transfected cells were treated with various concentrations of compounds or DMSO control. Luciferase signals were measured using the Dual Luciferase Reporter Assay System (Promega, E1960) according to the manufacturer's instructions. Experiments were performed in triplicate and repeated at least three times.

Twelve compounds from patent US20260337177A1, “TEAD CORE INHIBITORS FOR CANCER THERAPEUTICS” (University of Florida Research Foundation, Incorporated, priority 2023, published 2026) can be followed below.

As to `O=C(CCl)c1c[nH]c2cc(Cl)c(OCc3ccc(C(F)(F)F)c(F)c3)cc12` [Compound 24, 2-chloro-1-(6-chloro-5-((3-fluoro-4-(trifluoromethyl)benzyl)oxy)-1H-indol-3-yl)ethan-1-one], the IC50 in data set [1] amounted to 1.8 µM.

For `C=CC(=O)NCc1c[nH]c2cc(Cl)c(OCc3ccccc3)cc12` [Compound 11, N-((5-(benzyloxy)-6-chloro-1H-indol-3-yl)methyl)acrylamide], the IC50 in data set [1] was more than 50 µM. In data set [2], the “Inhibitory rate, AML12 (inhibitory percentage of AML12 cell growth)” value was found to be 0%.

As to `O=C(CCl)c1c[nH]c2ccc(OCc3ccc4ccccc4c3)cc12` [Compound 7, 2-chloro-1-(5-(naphthalen-2-ylmethoxy)-1H-indol-3-yl)ethan-1-one], the inhibition at 10 µM in data set [3] was determined as 5.3%. Also, the IC50 in data set [1] was more than 20 µM.

On to `O=C(CCl)NCc1c[nH]c2cc(Cl)c(OCc3ccc4ccccc4c3)cc12` [Compound 13, 2-chloro-N-((6-chloro-5-(naphthalen-2-ylmethoxy)-1H-indol-3-yl)methyl)acetamide], for which, in data set [3], the inhibition at 10 µM stood at 67.4%. The IC50 in data set [1] is 5.7 ± 1.3 µM. Besides, the “Inhibitory rate, AML12 (inhibitory percentage of AML12 cell growth)” value in data set [2] is listed as 43.4%.

Regarding `N#C/C(=C\c1c[nH]c2cc(Cl)c(OCc3ccc4ccccc4c3)cc12)C(N)=O` [Compound 17, (E)-3-(6-chloro-5-(naphthalen-2-ylmethoxy)-1H-indol-3-yl)-2-cyanoacrylamide], the inhibition at 10 µM in data set [3] came to 47.3%. Also, the IC50 in data set [1] worked out at 4.1 ± 0.6 µM. Moreover, in data set [2], the “Inhibitory rate, AML12 (inhibitory percentage of AML12 cell growth)” value is 60.2%.

In the case of `O=C(CCl)c1c[nH]c2ccc(OCc3ccccc3)cc12` [Compound 8, 1-(5-(benzyloxy)-1H-indol-3-yl)-2-chloroethan-1-one], in data set [3], the inhibition at 10 µM stood at 20.5%. For the same compound, the IC50 in data set [1] was determined as 10.5 ± 0.9 µM.

In the case of `N#C/C(=C\c1c[nH]c2cc(Cl)c(OCc3cccc(C(F)(F)F)c3)cc12)C(N)=O` [Compound 21, 3-(6-chloro-5-((3-(trifluoromethyl)benzyl)oxy)-1H-indol-3-yl)-2-cyanoacrylamide], the inhibition at 10 µM in data set [3] was 59.7%. For the same compound, the “Inhibitory rate, AML12 (inhibitory percentage of AML12 cell growth)” value in data set [2] came out at 97.1%.

For `N#C/C(=C\c1c[nH]c2cc(Cl)c(OCc3cccc4ccccc34)cc12)C(N)=O` [Compound 18, (E)-3-(6-chloro-5-(naphthalen-1-ylmethoxy)-1H-indol-3-yl)-2-cyanoacrylamide], in data set [3], the inhibition at 10 µM was found to be 51.3%. Also, in data set [2], the “Inhibitory rate, AML12 (inhibitory percentage of AML12 cell growth)” value is recorded as 70.3%.

Take `COc1cc2[nH]cc(C(=O)CCl)c2cc1OCc1ccc2ccccc2c1` [Compound 5, 2-chloro-1-(6-methoxy-5-(naphthalen-2-ylmethoxy)-1H-indol-3-yl)ethan-1-one]: in data set [3], the inhibition at 10 µM was 93.9%. Besides, the “TEAD transcription inhibition, luciferase reporter” value in data set [3] (varying dosage, FIGS. 3A-3B) is “potent inhibition activity”. For the same compound, in data set [1], the IC50 was 2.4 ± 0.5 µM. In data set [2], the “Toxicity towards normal liver cell line AML12” value is “high toxicity” and the “Inhibitory rate, AML12 (inhibitory percentage of AML12 cell growth)” value was 77.4%.

For the compound `N#C/C(=C\c1c[nH]c2cc(Cl)c(OCc3ccccc3)cc12)C(N)=O` [Compound 16, (E)-3-(5-(benzyloxy)-6-chloro-1H-indol-3-yl)-2-cyanoacrylamide], the IC50 in data set [1] was more than 50 µM. For the same compound, the “Inhibitory rate, AML12 (inhibitory percentage of AML12 cell growth)” value in data set [2] was determined as 0%.

Turning to `O=C(CCl)c1c[nH]c2cc(Cl)c(OCc3ccc(C(F)(F)F)cc3)cc12` [Compound 23, 2-chloro-1-(6-chloro-5-((4-(trifluoromethyl)benzyl)oxy)-1H-indol-3-yl)ethan-1-one], in data set [1], the IC50 amounted to 16.9 µM.

Regarding `N#C/C(=C\c1c[nH]c2cc(Cl)c(OCc3ccc4ccccc4n3)cc12)C(N)=O` [Compound 20, (E)-3-(6-chloro-5-(quinolin-2-ylmethoxy)-1H-indol-3-yl)-2-cyanoacrylamide], the IC50 in data set [1] turned out to be 68.7 ± 5.4 µM. Also, in data set [2], the “Inhibitory rate, AML12 (inhibitory percentage of AML12 cell growth)” value is 0%.
